Assay results reported in US20240261291A1, “Ophthalmic Compositions and/or Methods for Presbyopia, Mydriasis and/or Ocular Discomfort Management” (Brien Holden Vision Institute Limited, priority 2021, published 2024).

What was measured:
[1] = test system: pupillary diameter of the eye; assay: Pupillary diameter over 2 hours after a single eye drop of caffeine 2 wt. % in water, 5 individuals (Grand Seiko autorefractor); format: in vivo, human; conditions: for average decrease in pupillary diameter compared to baseline: 5 individuals; for maximal decrease in pupillary diameter: largest among individuals
Experimental: FIG. 1 is a schematic of the pupil diameter of eyes prescribed with caffeine 2% over time.
FIG. 1 illustrates the baseline pupillary diameter and the pupillary diameter over 2 hours in a group of 5 individuals (3 males and 2 females, age ranging from 31 to 45 yrs) prescribed with an ophthalmic composition comprising caffeine. A topical ophthalmic composition comprising caffeine 2 wt. % in water was instilled (as a single eye drop in the range of from 0.025 mL to 0.075 ml, such as an average single drop size of about 0.05 mL) in one eye of each of the individuals. Pupillary diameter at baseline and at subsequent time points was captured using a Grand Seiko autorefractor for 11 secs and data summarized. The room illumination was standardized at 150 to 200 lux. As observed from FIG. 1, there was a decrease in pupillary diameter post instillation. On average, compared to baseline, the decrease in pupillary diameter at 30 mins and 1 hr post instillation was 0.3 mm and was approximately 0.2 mm at 2 hrs. There was some variation between the various individuals, however the maximal […] in pupillary diameter at 30 mins was 0.4 mm, was approximately 0.8 mm at 1 hr and was approximately 0.6 mm at 2 hrs. Such an ophthalmic composition, as disclosed herein, can be used according to the methods provided herein to reduce the pupillary diameter of a treated eye of a subject and be effective in treating or managing symptoms related to presbyopia and/or mydriasis and/or eyes with disorders requiring light modulation such as one or more of vision disturbances.

[2] = test system: pupillary diameter of the eye; assay: Reversal of Tropicamide 1% mydriasis by caffeine 2.0 w/v % in saline, left eye only, person (Grand Seiko autorefractor); format: in vivo, human; conditions: for Pupillary diameter Left eye: given 50 mins after Tropicamide 1%
Experimental: FIG. 4 illustrates that difference in pupil diameter in the right and left eyes of an individual, wherein Tropicamide 1% was instilled in both eyes and approximately 50 minutes later, an ophthalmic composition comprising Caffeine at 2 w/v. % was instilled in the left eye only.
The following Table 3 illustrates the pupil diameter of a person. An aqueous solution of 1% Tropicamide was instilled in both eyes. Pupillary diameter was measured over a 15 second interval with a Grand Seiko autorefractor with the individual fixating at an object positioned 1 meter away. Pupillary diameter was dynamically sampled at multiple time points over the 15 second interval. Pupillary diameters for both eyes were measured prior to instillation (baseline), soon after instillation of 1% Tropicamide and then 20 minutes and 50 minutes post instillation. […] At this time point, a single drop (0.05 mL) of 2.0 w/v % Caffeine in Saline (0.9 wt. % NaCl) (composition 1) was instilled in the left eye only. The individual was monitored 30 minutes, 60 minutes, 2 hrs, 4 hrs and 6.5 hrs from instillation of Caffeine.
FIG. 4 illustrates the difference in pupillary diameter between the right and left eyes 4 hrs from the instillation of Tropicamide 1% in both eyes and […] from instillation of Caffeine 2 w/v % in the left eye.

Cn1c(=O)c2c(ncn2C)n(C)c1=O [Caffeine, caffeine (1,7 methylxanthine)]
average decrease in pupillary diameter compared to baseline ([1]; 30 mins post instillation, 150 to 200 lux): 0.3 mm | maximal decrease in pupillary diameter ([1]; 30 mins): 0.4 mm | average decrease in pupillary diameter compared to baseline ([1]; 1 hr post instillation): 0.3 mm | maximal decrease in pupillary diameter ([1]; 1 hr): approximately 0.8 mm | average decrease in pupillary diameter compared to baseline ([1]; 2 hrs post instillation): approximately 0.2 mm | maximal decrease in pupillary diameter ([1]; 2 hrs): approximately 0.6 mm | Difference in pupillary diameter (Right − Left) ([2]; 30 mins post instillation of Caffeine 2 w/v % in left eye, both eyes Tropicamide 1%): 0.5 mm | Difference in pupillary diameter (Right − Left) ([2]; 60 mins post instillation of Caffeine 2 w/v % in left eye, both eyes Tropicamide 1%): 0.7 mm | Difference in pupillary diameter (Right − Left) ([2]; 2 hrs post instillation of Caffeine 2 w/v % in left eye, both eyes Tropicamide 1%): 0.8 mm | difference between the pupils ([2]; at 1 and 2 hours following instillation of Caffeine in the left eye, both eyes Tropicamide 1%): approximately 0.8 mm | left eye pupil diameter ([2]; left eye (Tropicamide 1% then Caffeine 2 w/v %), 6.5 hrs from the baseline visit, returned to normal): 3.8 mm | Pupillary diameter Left eye ([2]; left eye, 30 mins post instillation of Caffeine 2 w/v %): 6.8 mm | Pupillary diameter Left eye ([2]; left eye, 60 mins post instillation of Caffeine 2 w/v %): 6.5 mm | Pupillary diameter Left eye ([2]; left eye, 2 hrs post instillation of Caffeine 2 w/v %): 6.3 mm | left eye pupillary diameter ([2]; left eye, 3 hrs from instillation of Caffeine 2 w/v %, 4 hrs from Tropicamide 1% (FIG. 4)): 5.9 mm
